Measurements reported in patent US20240409519A1, “HYDROGENATED QUINOXALINES” (OTSUKA PHARMACEUTICAL CO., LTD., priority 2021, published 2024).
pIC50: −log10 of the molar value.

Experiments:
Assay type in all cases: in vitro ADME
[1] = biological target: T1, CYP2C9 (Homo sapiens, UniProt P11712); assay: CYP inhibition test (2): 50% inhibitory concentration from 3 concentrations, CYP2C9; conditions: human liver microsome, diclofenac substrate, 0.01, 0.03 and 0.1 mmol/L, read-out: 50% inhibitory concentration, 2C9
T1 construct: a human liver microsome solution containing three CYP-specific substrates; from tissue; host or cells: human liver microsomes
T1 sequence (P11712 whole entry): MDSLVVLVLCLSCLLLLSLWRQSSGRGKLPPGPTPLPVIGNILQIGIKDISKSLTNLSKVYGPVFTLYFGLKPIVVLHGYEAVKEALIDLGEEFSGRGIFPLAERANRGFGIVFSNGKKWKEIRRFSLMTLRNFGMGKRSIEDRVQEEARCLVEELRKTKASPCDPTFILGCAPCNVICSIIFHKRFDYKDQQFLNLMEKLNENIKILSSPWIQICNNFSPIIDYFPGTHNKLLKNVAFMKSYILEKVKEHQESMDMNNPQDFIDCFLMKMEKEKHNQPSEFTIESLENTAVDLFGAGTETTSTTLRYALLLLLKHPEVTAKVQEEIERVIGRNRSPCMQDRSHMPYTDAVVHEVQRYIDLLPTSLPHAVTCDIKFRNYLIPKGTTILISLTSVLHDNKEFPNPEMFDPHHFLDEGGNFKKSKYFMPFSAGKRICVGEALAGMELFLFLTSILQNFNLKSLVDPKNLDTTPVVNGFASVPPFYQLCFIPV
Procedure: (§1) A metabolic reaction was initiated by adding and mixing a test compound solution (final concentration 0.01, 0.03 and 0.1 mmol/L) and a NADH/NADPH solution (final concentration 1 mmol/L) to a human liver microsome solution containing three CYP-specific substrates (final concentration 100 mmol/L potassium phosphate buffer solution (pH 7.4), 5 mmol/L magnesium chloride, 0.1 mg/mL human liver microsome, 0.005 mmol/L diclofenac (for CYP2C9), 0.01 mmol/L bufuralol (for CYP2D6), 0.005 mmol/L midazolam (for CYP3A4)). As an internal standard solution, a solution of each of stable isotopes of the metabolites (50 ng/mL [13C6] hydroxy diclofenac, 5 ng/mL [2H9] hydroxy bufuralol, and 5 ng/mL [13C6] hydroxy midazolam (all stable isotopes)) in methanol was prepared and used as a quenching solution. Specifically, a metabolic reaction was initiated by adding and mixing 2 μL of a solution of a test compound in acetonitrile (or acetonitrile as a control) to 178 μL of a human liver microsome solution in ice water, followed by preincubation at 37° C. for 1 minute, and then adding 20 μL of a NADH/NADPH solution thereto. After incubation at 37° C. for 10 minutes, 50 μL of the reaction mixture was taken, and then it was added and mixed to 500 μL of a quenching solution to quech the reaction. The mixture was centrifuged (6130 g, 4° C., 10 minutes) and the supernatant was used as a sample for LC-MS/MS. Peak area ratio ([peak area of metabolite]/[peak area of corresponding stable isotope]) was calculated for a metabolite and a stable isotope of the metabolite as measurement object. By comparing the peak area ratio of each test compound solution with that of the control, the inhibition rate (%) of each CYP species for each test compound was calculated from (1−[peak area ratio of each test compound solution]/[peak area ratio of control])×100.

[2] = biological target: T2, CYP3A4 (Homo sapiens, UniProt P08684); assay: CYP inhibition test (2): 50% inhibitory concentration from 3 concentrations, CYP3A4; conditions: human liver microsome, midazolam substrate, 0.01, 0.03 and 0.1 mmol/L; read-out: 50% inhibitory concentration, 3A4
T2 construct: a human liver microsome solution containing three CYP-specific substrates; from tissue; host or cells: human liver microsomes
T2 sequence (P08684 whole entry): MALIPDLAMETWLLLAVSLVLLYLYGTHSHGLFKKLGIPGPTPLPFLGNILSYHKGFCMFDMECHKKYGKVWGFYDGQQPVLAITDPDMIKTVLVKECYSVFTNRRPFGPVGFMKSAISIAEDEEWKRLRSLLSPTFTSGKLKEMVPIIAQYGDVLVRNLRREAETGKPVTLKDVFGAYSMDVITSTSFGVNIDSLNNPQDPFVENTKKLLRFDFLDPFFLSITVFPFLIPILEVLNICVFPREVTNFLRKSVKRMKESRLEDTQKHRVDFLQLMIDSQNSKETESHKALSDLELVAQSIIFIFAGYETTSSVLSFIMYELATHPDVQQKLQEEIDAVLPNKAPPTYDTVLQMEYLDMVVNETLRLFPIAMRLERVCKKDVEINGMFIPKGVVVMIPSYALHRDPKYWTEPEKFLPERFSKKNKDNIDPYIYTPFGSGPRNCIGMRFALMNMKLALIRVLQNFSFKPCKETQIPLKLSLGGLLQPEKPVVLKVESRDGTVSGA
Procedure: as §1

[3] = biological target: T3, CYP2D6 (Homo sapiens, UniProt P10635); assay: CYP inhibition test (2): 50% inhibitory concentration from 3 concentrations, CYP2D6; conditions: human liver microsome, bufuralol substrate, 0.01, 0.03 and 0.1 mmol/L; read-out: 50% inhibitory concentration, 2D6
T3 construct: a human liver microsome solution containing three CYP-specific substrates; from tissue; host or cells: human liver microsomes
T3 sequence (P10635 whole entry): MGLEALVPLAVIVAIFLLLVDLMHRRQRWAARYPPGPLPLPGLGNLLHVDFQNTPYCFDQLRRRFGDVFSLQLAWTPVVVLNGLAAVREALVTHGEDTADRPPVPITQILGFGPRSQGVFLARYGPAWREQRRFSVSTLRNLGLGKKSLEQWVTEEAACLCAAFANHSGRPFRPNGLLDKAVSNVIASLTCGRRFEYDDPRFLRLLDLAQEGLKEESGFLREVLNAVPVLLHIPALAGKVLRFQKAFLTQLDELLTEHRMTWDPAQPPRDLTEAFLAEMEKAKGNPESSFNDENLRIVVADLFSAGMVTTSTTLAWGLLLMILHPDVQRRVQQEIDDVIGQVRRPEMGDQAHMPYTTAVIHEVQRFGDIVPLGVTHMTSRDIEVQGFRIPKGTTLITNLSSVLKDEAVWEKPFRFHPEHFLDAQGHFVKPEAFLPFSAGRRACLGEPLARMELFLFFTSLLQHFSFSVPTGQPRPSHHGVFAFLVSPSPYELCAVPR
Procedure: as §1

pIC50 [1] | pIC50 [2] | pIC50 [3] | IC50 at 10 min ([1]; human liver microsomes, pH 7.4, probe diclofenac (0.005 mmol/L)) [µM] | SMILES
< 4.00 | < 4.00 | < 4.00 |  | COc1cc(N2CC(C)(C)N[C@H]3CCCC[C@@H]32)ccc1OC(F)(F)CO [Example 26]
< 4.00 | < 4.00 | < 4.00 |  | CC1(C)CN(c2ccc(OC(F)(F)CO)cc2)[C@@H]2CCCC[C@H]2N1 [Example 21]
< 4.00 | 4.20 | < 4.00 |  | Cc1cc(N2CC(C)(C)N[C@@H]3CCCC[C@H]32)ccc1OC(F)(F)CO [Example 32]
< 4.00 | < 4.00 | < 4.00 |  | CC1(C)CN(c2cc(F)c(OCCO)c(F)c2)[C@H]2CCCC[C@@H]2N1 [Example 34, 2-(4-((4aS,8aS)-3,3-dimethyloctahydroquinoxalin-1(2H)-yl)-2,6-difluorophenoxy)ethan-1-ol]
< 4.00 | < 4.00 | < 4.00 |  | CC1(C)CN(c2ccc(OCCO)c(Cl)c2)[C@H]2CCCC[C@@H]2N1 [Example 27, 2-(2-chloro-4-((4aS,8aS)-3,3-dimethyloctahydroquinoxalin-1(2H)-yl)phenoxy)ethan-1-ol]
< 4.00 | < 4.00 | 4.26 |  | CC1(C)CN(c2cc(F)c(OCCO)c(F)c2)[C@@H]2CCCC[C@H]2N1 [Example 35]
< 4.00 | 4.06 | < 4.00 |  | CN1[C@H]2CCCC[C@@H]2N(c2ccc(OC(F)(F)CO)cc2)CC1(C)C [Example 37, 2,2-difluoro-2-(4-((4aS,8aS)-3,3,4-trimethyloctahydroquinoxalin-1(2H)-yl)phenoxy)ethan-1-ol]
< 4.00 | 4.20 | < 4.00 |  | Cc1cc(N2CC(C)(C)N[C@H]3CCCC[C@@H]32)ccc1OC(F)(F)CO [Example 31]
< 4.00 | < 4.00 | < 4.00 |  | CC1(C)CN(c2ccc(OCCO)c(Cl)c2)[C@@H]2CCCC[C@H]2N1 [Example 28]
< 4.00 | < 4.00 | < 4.00 |  | C[C@@H]1CN(c2cc(F)c(OCCO)c(Cl)c2)[C@H]2CCCC[C@@H]2N1 [Example 17, 2-(2-chloro-6-fluoro-4-((3R,4aS,8aS)-3-methyloctahydroquinoxalin-1(2H)-yl)phenoxy)ethan-1-ol 1/2fumarate]
 | < 4.00 | 4.06 | 100 | CC1(C)CN(c2cc(F)c(OCCO)c(F)c2)[C@H]2CCCC[C@H]2N1 [Example 36]
< 4.00 | < 4.00 | 4.23 |  | C[C@H]1CN(c2cc(F)c(OCCO)c(Cl)c2)[C@H]2CCCC[C@H]2N1 [Example 18]
< 4.00 | 4.02 | < 4.00 |  | CC1(C)CN(c2ccc(OC(F)(F)CO)cc2)[C@H]2CCCC[C@@H]2N1 [Example 20, 2-(4-((4aS,8aS)-3,3-dimethyloctahydroquinoxalin-1(2H)-yl)phenoxy)-2,2-difluoroethan-1-ol]
